# Laboratory results as given in ChEMBL document CHEMBL1909046, “DrugMatrix in vitro pharmacology data”.
# Tests used:
# [1] = biological target: Beta-3 adrenergic receptor (Homo sapiens, UniProt P13945); assay: DRUGMATRIX: Adrenergic beta3 radioligand binding (ligand: [125I] Cyanopindolol); type: cell membranes, HEK293, Membrane; conditions: Not Active = under 50% inhibition at 10 µM; for Ki: read-out: Ki
# [2] = biological target: 5-hydroxytryptamine receptor 6 (Homo sapiens, UniProt P50406); type: cell membranes, HeLa, Membrane; note: in other assays of this panel Not Active means under 50% inhibition at 10 µM
# [3] = biological target: T1, Substance-K receptor (Homo sapiens, UniProt P21452); type: cell membranes, CHO, Membrane; note: in other assays of this panel Not Active means under 50% inhibition at 10 µM
# T1 sequence (P21452 whole entry): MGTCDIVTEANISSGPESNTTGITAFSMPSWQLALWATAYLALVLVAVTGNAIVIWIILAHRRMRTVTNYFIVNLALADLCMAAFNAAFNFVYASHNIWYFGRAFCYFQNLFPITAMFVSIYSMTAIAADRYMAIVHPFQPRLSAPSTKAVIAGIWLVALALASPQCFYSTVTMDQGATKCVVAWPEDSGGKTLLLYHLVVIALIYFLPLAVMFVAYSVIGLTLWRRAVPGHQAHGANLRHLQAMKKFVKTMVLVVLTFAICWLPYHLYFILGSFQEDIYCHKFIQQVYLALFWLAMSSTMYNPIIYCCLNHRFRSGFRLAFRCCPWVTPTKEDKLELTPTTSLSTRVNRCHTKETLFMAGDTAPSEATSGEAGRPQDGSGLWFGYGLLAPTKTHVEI
# [4] = biological target: T2, D(4) dopamine receptor (Homo sapiens, UniProt P21917); assay: DRUGMATRIX: Dopamine D4.2 radioligand binding (ligand: [3H] Spiperone); type: cell membranes, CHO-K1, Membrane; conditions: cho-k1; Not Active = under 50% inhibition at 10 µM
# T2 sequence (P21917 whole entry): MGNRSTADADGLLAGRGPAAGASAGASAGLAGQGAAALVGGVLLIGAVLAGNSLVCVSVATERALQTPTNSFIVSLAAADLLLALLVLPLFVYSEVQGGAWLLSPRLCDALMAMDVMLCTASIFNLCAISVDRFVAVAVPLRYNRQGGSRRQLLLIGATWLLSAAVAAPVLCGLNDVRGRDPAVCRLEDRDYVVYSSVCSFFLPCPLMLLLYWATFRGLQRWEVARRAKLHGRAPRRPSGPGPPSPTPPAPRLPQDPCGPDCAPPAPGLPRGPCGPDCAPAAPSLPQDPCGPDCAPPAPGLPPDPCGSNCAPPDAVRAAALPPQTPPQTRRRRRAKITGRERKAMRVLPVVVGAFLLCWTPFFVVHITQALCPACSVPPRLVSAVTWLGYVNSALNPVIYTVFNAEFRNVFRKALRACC
# [5] = DRUGMATRIX: Interleukin IL-1 radioligand binding (ligand: [125I] interleukin 1beta); type: cell membranes, Membrane; conditions: nih3t3; Not Active = under 50% inhibition at 10 µM
# [6] = DRUGMATRIX: Purinergic P2X radioligand binding (ligand: [3H] alpha, beta-Methylene-ATP); type: cell membranes, Oryctolagus cuniculus, New Zealand albino, Urinary bladder, Membrane; conditions: Not Active = under 50% inhibition at 10 µM
# 5-hydroxytryptamine receptor 6, sequence (P50406 whole entry): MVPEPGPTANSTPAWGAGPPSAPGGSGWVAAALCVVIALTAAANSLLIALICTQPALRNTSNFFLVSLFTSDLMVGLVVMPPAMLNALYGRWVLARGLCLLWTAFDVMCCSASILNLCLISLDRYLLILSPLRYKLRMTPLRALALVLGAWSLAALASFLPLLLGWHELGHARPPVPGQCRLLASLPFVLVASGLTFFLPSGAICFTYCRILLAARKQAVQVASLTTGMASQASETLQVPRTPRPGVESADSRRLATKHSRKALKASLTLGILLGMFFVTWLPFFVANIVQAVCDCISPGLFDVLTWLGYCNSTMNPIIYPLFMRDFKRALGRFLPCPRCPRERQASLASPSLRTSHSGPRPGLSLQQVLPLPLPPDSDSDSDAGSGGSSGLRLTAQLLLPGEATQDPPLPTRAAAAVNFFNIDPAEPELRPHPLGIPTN
# Beta-3 adrenergic receptor, sequence (P13945 whole entry): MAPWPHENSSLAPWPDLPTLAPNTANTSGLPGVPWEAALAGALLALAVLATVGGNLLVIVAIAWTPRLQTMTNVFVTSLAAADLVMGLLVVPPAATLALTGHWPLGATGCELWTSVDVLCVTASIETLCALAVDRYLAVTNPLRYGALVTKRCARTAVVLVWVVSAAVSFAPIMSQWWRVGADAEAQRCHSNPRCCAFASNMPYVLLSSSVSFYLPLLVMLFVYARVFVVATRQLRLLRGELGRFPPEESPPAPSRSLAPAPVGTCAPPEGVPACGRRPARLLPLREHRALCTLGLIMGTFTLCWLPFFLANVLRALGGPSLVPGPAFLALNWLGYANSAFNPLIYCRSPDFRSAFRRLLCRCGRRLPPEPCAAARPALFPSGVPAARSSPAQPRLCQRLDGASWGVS
Structure (SMILES),IC50 ([1]; read-out: IC50),Ki [1],IC50 ([2]; hela),IC50 ([3]; cho),IC50 [4],IC50 [5],Ki [5],IC50 [6],Ki [6],IC50 ([1]; hek293),IC50 ([3]; read-out: IC50),Ki ([3]; read-out: Ki),IC50 ([2]; read-out: IC50)
CCOc1nc2cccc(C(=O)O)c2n1Cc1ccc(-c2ccccc2-c2nnn[nH]2)cc1,4.3 µM,3.2 µM,Not Active,Not Active,Not Active,Not Active,Not Active,Not Active,Not Active,–,–,–,–
O=C(O)CCCc1cccs1,–,–,Not Active,Not Active,Not Active,Not Active,Not Active,Not Active,Not Active,Not Active,–,–,–
COc1ccccc1N,–,–,Not Active,Not Active,Not Active,Not Active,Not Active,Not Active,Not Active,Not Active,–,–,–
O=C(c1ccccc1F)N1CCC(Cc2ccccc2)CC1,–,–,Not Active,Not Active,Not Active,Not Active,Not Active,Not Active,Not Active,Not Active,–,–,–
Cc1c(O)cccc1C(=O)N[C@@H](CSc1ccccc1)[C@H](O)CN1C[C@H]2CCCC[C@H]2C[C@H]1C(=O)NC(C)(C)C,34.1 µM,25.6 µM,Not Active,–,Not Active,Not Active,Not Active,Not Active,Not Active,–,29.4 µM,9.79 µM,–
CC(O)COC[C@H]1O[C@@H]2O[C@H]3[C@H](O)[C@@H](O)[C@@H](O[C@H]4[C@H](O)[C@@H](O)[C@@H](O[C@H]5[C@H](O)[C@@H](O)[C@@H](O[C@H]6[C@H](O)[C@@H](O)[C@@H](O[C@H]7[C@H](O)[C@@H](O)[C@@H](O[C@H]8[C@H](O)[C@@H](O)[C@@H](O[C@H]1[C@H](O)[C@H]2O)O[C@@H]8COCC(C)O)O[C@@H]7COCC(C)O)O[C@@H]6COCC(C)O)O[C@@H]5COCC(C)O)O[C@@H]4COCC(C)O)O[C@@H]3COCC(C)O (stereo partly drawn) [2-HYDROXYPROPYL-BETA-CYCLODEXTRIN],–,–,Not Active,Not Active,Not Active,Not Active,Not Active,Not Active,Not Active,Not Active,–,–,–
NC(=O)c1cccc(N)c1 [3-AMINOBENZAMIDE],–,–,Not Active,Not Active,Not Active,Not Active,Not Active,Not Active,Not Active,Not Active,–,–,–
C[C@H]1O[C@H](O[C@H]2[C@H](O)[C@@H](O)[C@@H](O[C@H]3[C@H](O)[C@@H](O)C(O)O[C@@H]3CO)O[C@@H]2CO)[C@H](O)[C@@H](O)[C@@H]1N[C@H]1C=C(CO)[C@@H](O)[C@H](O)[C@H]1O (some centres undefined) [ACARBOSE],–,–,Not Active,Not Active,Not Active,Not Active,Not Active,Not Active,Not Active,Not Active,–,–,–
CC[C@H]1[C@@H]2C[C@H]3[C@@H]4N(C)c5ccccc5[C@]45C[C@@H]([C@@H]2[C@H]5O)N3[C@@H]1O [AJMALINE],–,–,Not Active,Not Active,Not Active,Not Active,Not Active,Not Active,Not Active,Not Active,–,–,–
NC12CC3CC(CC(C3)C1)C2 [AMANTADINE],–,–,Not Active,Not Active,Not Active,Not Active,Not Active,Not Active,Not Active,Not Active,–,–,–
NCCCNCCSP(=O)(O)O [AMIFOSTINE],–,–,Not Active,Not Active,Not Active,Not Active,Not Active,Not Active,Not Active,Not Active,–,–,–
CN(C)CCC=C1c2ccccc2CCc2ccccc21 [AMITRIPTYLINE],–,–,–,Not Active,Not Active,Not Active,Not Active,Not Active,Not Active,Not Active,–,–,0.14 µM
CC(=O)Oc1ccccc1C(=O)O [ASPIRIN],–,–,Not Active,Not Active,Not Active,Not Active,Not Active,Not Active,Not Active,Not Active,–,–,–
CC(C)c1c(C(=O)Nc2ccccc2)c(-c2ccccc2)c(-c2ccc(F)cc2)n1CC[C@@H](O)C[C@@H](O)CC(=O)O [ATORVASTATIN],–,–,Not Active,Not Active,Not Active,Not Active,Not Active,Not Active,Not Active,Not Active,–,–,–
CC(=O)OC[C@H]1O[C@@H](n2ncc(=O)[nH]c2=O)[C@H](OC(C)=O)[C@@H]1OC(C)=O [AZARIBINE],–,–,Not Active,Not Active,Not Active,Not Active,Not Active,Not Active,Not Active,Not Active,–,–,–
C[C@H]1[C@H](NC(=O)/C(=N\OC(C)(C)C(=O)O)c2csc(N)n2)C(=O)N1S(=O)(=O)O [AZTREONAM],–,–,Not Active,Not Active,Not Active,Not Active,Not Active,Not Active,Not Active,Not Active,–,–,–
O=C(O)CCNC(=O)c1ccc(/N=N/c2ccc(O)c(C(=O)O)c2)cc1 [BALSALAZIDE],–,–,Not Active,Not Active,Not Active,Not Active,Not Active,Not Active,Not Active,Not Active,–,–,–
COc1cc(OC)c(C(=O)CCCN2CCCC2)c(OC)c1 [BUFLOMEDIL],–,–,Not Active,Not Active,Not Active,Not Active,Not Active,Not Active,Not Active,Not Active,–,–,–
Cn1c(=O)c2c(ncn2C)n(C)c1=O [CAFFEINE],–,–,Not Active,Not Active,Not Active,Not Active,Not Active,Not Active,Not Active,Not Active,–,–,–
ClC(Cl)(Cl)Cl [CARBON TETRACHLORIDE],–,–,Not Active,Not Active,Not Active,Not Active,Not Active,Not Active,Not Active,Not Active,–,–,–
CO/N=C(\C(=O)N[C@@H]1C(=O)N2C(C(=O)O)=C(COC(C)=O)CS[C@H]12)c1csc(N)n1 [CEFOTAXIME],–,–,Not Active,Not Active,Not Active,Not Active,Not Active,Not Active,Not Active,Not Active,–,–,–
CNC1=Nc2ccc(Cl)cc2C(c2ccccc2)=[N+]([O-])C1 [CHLORDIAZEPOXIDE],–,–,Not Active,Not Active,Not Active,Not Active,Not Active,Not Active,Not Active,Not Active,–,–,–
Cc1cc(O)cc(C)c1Cl [CHLOROXYLENOL],–,–,Not Active,Not Active,Not Active,Not Active,Not Active,Not Active,Not Active,Not Active,–,–,–
CCCNC(=O)NS(=O)(=O)c1ccc(Cl)cc1 [CHLORPROPAMIDE],–,–,Not Active,Not Active,Not Active,Not Active,Not Active,Not Active,Not Active,Not Active,–,–,–
NS(=O)(=O)c1cc(C2(O)NC(=O)c3ccccc32)ccc1Cl (centres undefined) [CHLORTHALIDONE],–,–,Not Active,Not Active,Not Active,Not Active,Not Active,Not Active,Not Active,Not Active,–,–,–
O=C(O)CC(O)(CC(=O)O)C(=O)O [CITRIC ACID],–,–,Not Active,Not Active,Not Active,Not Active,Not Active,Not Active,Not Active,Not Active,–,–,–
CC(C)NCC(O)c1ccccc1Cl (centres undefined) [CLORPRENALINE],–,–,Not Active,Not Active,Not Active,Not Active,Not Active,Not Active,Not Active,Not Active,–,–,–
